Experimental data published in article PMC3477287 (ACS chemical biology, 2012).

Target: MbtA (Mycobacterium tuberculosis, UniProt P71716)
Experiment: […]
Type: biochemical

MbtA, sequence (P71716 whole entry): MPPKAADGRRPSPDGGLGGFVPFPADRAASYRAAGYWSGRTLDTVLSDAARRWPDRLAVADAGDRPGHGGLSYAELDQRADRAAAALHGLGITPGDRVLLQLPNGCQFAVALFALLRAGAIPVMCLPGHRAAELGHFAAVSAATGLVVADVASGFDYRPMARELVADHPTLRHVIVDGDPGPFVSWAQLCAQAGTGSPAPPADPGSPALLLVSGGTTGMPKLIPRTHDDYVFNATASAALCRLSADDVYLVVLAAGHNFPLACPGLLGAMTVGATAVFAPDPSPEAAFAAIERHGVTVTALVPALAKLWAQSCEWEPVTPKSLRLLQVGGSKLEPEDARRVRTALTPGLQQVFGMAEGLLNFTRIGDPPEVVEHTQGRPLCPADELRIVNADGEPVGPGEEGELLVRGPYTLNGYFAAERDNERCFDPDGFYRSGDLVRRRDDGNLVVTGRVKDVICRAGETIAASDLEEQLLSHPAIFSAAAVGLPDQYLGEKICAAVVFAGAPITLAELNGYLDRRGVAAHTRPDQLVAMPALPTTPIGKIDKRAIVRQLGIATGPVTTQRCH

Sal-AMS ABP [compound 6]
Ki: 940 pM
